Entries after “also recorded” stand apart in the source; their conditions may differ.

Data on two compounds can be found in patent US20250195653A1, “MULTIFUNCTIONAL NATURAL KILLER (NK) CELL ENGAGER COMBINATION THERAPY FOR TREATING HEMATOLOGICAL NEOPLASTIC DISORDERS” (SANOFI, priority 2023, published 2025).

The test system of one data set is MOLM-13 cells. Briefly: MOLM-13 cell viability over 72 h and 6 days with AZA or VEN (flow cytometry). In kind it is cell-based. How it is done:
(§1) Following the proper timing of incubation (from 6 h to 72 h), 0.05×10^6 cells/well MOLM-13 and NK cells in 96-well round bottom plates (Corning® Costar® Ultra-Low Attachment Multiple 96-Well Plate; Thermo Scientific, Denmark, ref #7007) were centrifuged at 300 g for 5 minutes at RT. Supernatant was aspirated and Tampon Running Buffer (Miltenyi, ref #130-091-2221) or the antibodies were added to the cell pellets (50 μL/well). In addition, 1 μL of each antibody was used to stain the compensation beads. The cells and the beads were incubated for 20 minutes at 4° C. Two consecutive washing steps were performed by adding 150 and then 200 μL of Tampon Running Buffer in the wells followed by centrifugation at 300 g for 5 minutes at 4° C.
(§2) Finally, 100 μL/well of PBS were added before reading the plate by MACSQuant Analyzer 16 Flow Cytometer. The propidium iodide (PI) marker of viability was added to every well reading at 1/10 dilution.
In general terms: In flow cytometry, cells or beads pass a laser one at a time.

For data set [1], the system named is NK cells. Briefly: NK cell viability after treatment with AZA or VEN. In kind it is cell-based, human. The note with it: 0.01 nM to 10 μM, 48 h, 3 independent NK donors. As for the experimental part: (§3) Human NK cells were purified from PBMCs using MACSxpress® Whole Blood NK Cell Isolation Kit (Miltenyi, ref #130-127-695) according to supplier recommendations. NK cells were then cultured in complete medium at 5×10^6 cells/mL at +37° C. at 5% CO2 (so called “resting” NK cells) overnight before being used in the activation assay.
(§4) Of these serial dilutions 100 μL of VEN (single agent) was added to each well that contains 100 μL of cell suspension to obtain a final concentration of 10, 1, 0.1, 0.01, 0.001, 0.0001, 0.00001 μM in a final volume of 200 μL/well.
Following the proper timing of incubation (from 6 h to 72 h), 0.05×10^6 cells/well MOLM-13 and NK cells in 96-well round bottom plates (Corning® Costar® Ultra-Low Attachment Multiple 96-Well Plate; Thermo Scientific, Denmark, ref #7007) were centrifuged at 300 g for 5 minutes at RT. Supernatant was aspirated and Tampon Running Buffer (Miltenyi, ref #130-091-2221) or the antibodies were added to the cell pellets (50 μL/well). In addition, 1 μL of each antibody was used to stain the compensation beads. The cells and the beads were incubated for 20 minutes at 4° C. […]
as §2

Data set [2] deals with NK cells. Kind of data set: NK cell phenotype in the presence of AZA or VEN. In kind it is cell-based, human. The note with it: AZA or VEN at defined concentrations (1 μM AZA, 1 nM VEN, 48 h). How it is done: as §3, §1, §2
The test system of another data set is MOLM-13 RFP AML cells. Kind of data set: Incucyte in vitro killing assay with NK effector cells, E:T 1:1. In kind it is cell-based. The note with it: CD123 NKCE 5 ng/mL, AZA 600 nM or VEN 2 nM. How it is done:
MOLM-13 RFP cells were generated by infecting MOLM-13 (DSMZ, ACC: 554) with the Incucyte® Nuclight Red Lentivirus (Sartorius #4476) to express a nuclear-restricted mKate2 (red fluorescent protein, RFP). MOLM-13 RFP cells were harvested in the same culture medium used for wild-type cells with the addition of 1 μg/mL of puromycin (Gibco, ref #A11138-03) to maintain the selection pressure.
Human NK cells were purified from PBMCs using MACSxpress® Whole Blood NK Cell Isolation Kit (Miltenyi, ref #130-127-695) according to supplier recommendations. […]
Cytotoxicity was evaluated using the Incucyte live-cells analysis system which allows to quantify the number of live fluorescent target cells over time.
First, 50 μL of CD123 NKCE and its isotype control were distributed in the appropriate wells of an F-bottom (flat-bottom) 96-well plate coated with poly-D-lysine (Greiner BioOne ref #655946). CD123 NKCE was tested at 5 ng/mL, while its isotype was evaluated at the highest concentration of 100 ng/ml. […]
The growth/proliferation of MOLM-13 RFP tumor cells was monitored by cell imaging up to 64 h using the Incucyte® S3 with standard scans every 4 h. […] Tumor cells growth/proliferation was calculated by counting the number of red cells at each time point, which was then normalized to the number of cells at time zero and expressed as a percentage.

A further data set relates to CD123 on MOLM-13 cells. Kind of data set: CD123 expression on MOLM-13 cells by flow cytometry. It counts as cell-based. To be noted: for CD123 expression level (MedFI) on MOLM-13 cells: 0.01 nM to 10 μM; for CD123 expression (median fluorescence intensity) on MOLM-13 cells: 1 nM and 1 μM, 6 h, 24 h or 48 h, MOLM-13 alone or with NK cells from two donors; for CD123 target expression on MOLM-13 AML tumor cells (conclusion): at the tested concentrations, up to 6 days of treatment. How it is done: as §1, §2
(§5) Finally, NK cell at effector:target (E:T) ratio of 1:1 (thus 0.05×10^6 cells/well) were incubated with MOLM-13 cell line at 37° C. in the presence of 5% CO2. After 6 h, 24 h, or 48 h, plates were centrifuged at 300 g for 5 minutes at RT. The Tampon Running Buffer or the selected antibodies were added to the cell pellets (50 μL/well) to assess cell viability and to perform the flow cytometry-based staining.

In the next data set the test system is CD16a on NK cells. Briefly: CD16a expression on NK cells by flow cytometry. The note with it: 1 μM AZA or 1 nM VEN. In kind it is cell-based, human. How it is done: as §3, §1, §2
For data set [3], the system named is CD123-positive MOLM-13 AML cell line. Briefly: 5-azacytidine and venetoclax flow cytometry cytotoxic assay, 48 h. It counts as cell-based. As for the experimental part: The MOLM-13 cell line (DSMZ ACC 554) is an acute myeloid leukemia cell line. These cells are mostly round cells growing in suspension. For maintenance, cells were resuspended in fresh RPMI1640 medium supplemented with 10% Fetal Bovin Serum (FBS; Biowest, ref #S140H-100) and 2 mM L-Glutamine (Gibco, ref #25030-024) referred as complete culture medium at 0.3×10^6 cells/mL for 3 or 4 days.
On the day of the assay, the product was thawed and vortexed to eliminate potential aggregates before cascade dilution. A first dilution of 1/100 was performed in complete culture medium. Then, a dilution range from 20 μM (twice concentrated) to 20 pM (1/10 serial dilution) was performed in complete culture medium to assess the concentration-dependent effect of the single agent.
Similarly, stock solution of VEN was stored in complete culture medium at 4° C. On the day of the assay, the product was vortexed to eliminate potential aggregates before cascade dilution. A dilution range from 20 μM (twice concentrated) to 20 pM (1/10 serial dilution) was performed in complete culture medium to assess the concentration-dependent effect of the single agent.
as §4
CD123-positive MOLM-13 target cells were counted the day of the assay and the amount of cell needed for the experiment was evaluated. Target cells were seeded at 0.05×10^6 cells/50 μL of complete culture medium per well.
In the meantime, compound seral dilutions or the four defined concentrations were prepared and added to a U-bottom 96-well plate (100 μL/well). As controls, target cells alone without drugs, were cultured at the same concentration in complete culture medium (200 μL/well). Each condition was performed in monoplicate.
Culture plates were incubated at 37° C. in the presence of 5% CO2 for 48 h. The plates were centrifuged at 300 g for 5 minutes at RT and resuspended in 100 μL of PBS to the following reading by MACSQuant Analyzer 16 Flow. The marker of viability PI was added to every well reading at dilution 1/10.

For a further data set, the system named is NKp46 on NK cells. Kind of data set: NKp46 expression on NK cells by flow cytometry. It counts as cell-based, human. The note with it: 1 μM AZA or 1 nM VEN. As for the experimental part:
as §3, §1, §2

For data set [4] the following is noted: cited from earlier work.
The subject of data set [5] is CD123-positive MOLM-13 cells. Briefly: 5-azacytidine and venetoclax cytotoxic assays in the absence or presence of NK cells (6 h, 24 h, 48 h). To be noted: VEN 1 μM. It counts as cell-based. As for the experimental part: as §5
For data set [6] the following is noted: at the dose of 400 mg; cited from earlier work.

`Nc1ncn([C@@H]2O[C@H](CO)[C@@H](O)[C@H]2O)c(=O)n1` [AZA, 4-amino-1-beta-D-ribofuranosyl-s-triazin-2 (1H)-one]: the MOLM-13 cell viability entry in the data set with MOLM-13 cells (AZA 600 nM and 3 μM) is recorded as “did not affect”. For the same compound, the NK cell viability result in the data set on NK cells [1] is “did not negatively impact; also recorded: no cytotoxic effect”. In the data set with NK cells [2], the “impact on NK cell phenotype” value is “minimal impact”. Also, the “target cell lysis, single agent” value with MOLM-13 RFP AML cells is reported as “increased target cell lysis; also recorded: some target lysis”. In addition, the “CD123 expression level (MedFI) on MOLM-13 cells” value in the data set on CD123 on MOLM-13 cells (48 h) is given as “minimal impact”. Besides, in the data set with CD123 on MOLM-13 cells, the “CD123 expression (median fluorescence intensity) on MOLM-13 cells” value is reported as “did not impact” and the “CD123 target expression on MOLM-13 AML tumor cells (conclusion)” value is “minimal impact”. The “CD123 median of fluorescence intensity (MedFI) on MOLM-13 cells” value in the data set with CD123 on MOLM-13 cells (AZA at 1 and 10 μM, 48 h) is “slight decrease”. In addition, the “CD16a expression level on NK cells” value in the data set on CD16a on NK cells is reported as “no impact”. For the same compound, in data set [3] (AZA at high concentration (10 μM), 48 h), the “MOLM-13 AML cell viability” value is on record as “strongly decreased; also recorded: cytotoxic activity”. Moreover, the “MOLM-13 AML cell viability” value in data set [3] (AZA at lower concentrations, 48 h, compared to non-treated control) was “No effect”. In addition, in the data set with NKp46 on NK cells, the “NKp46 expression level on NK cells” value is “no impact”.
Take `CC1(C)CCC(CN2CCN(c3ccc(C(=O)NS(=O)(=O)c4ccc(NCC5CCOCC5)c([N+](=O)[O-])c4)c(Oc4cnc5[nH]ccc5c4)c3)CC2)=C(c2ccc(Cl)cc2)C1` [VEN]: in [4], the aqueous solubility entry was “very low”. Further, the “killing potential on MOLM-13 cells” value in data set [5] is “enhanced killing potential”. The “impact on MOLM-13 cell viability” value in [5] (6 h) is on record as “no impact”; in data set [5] (24 h) it was “moderate”; in [5] (48 h) it was “strong impact”. Besides, the MOLM-13 viability entry in the data set with MOLM-13 cells (VEN 2, 5 and 10 nM) is listed as “impacted MOLM-13 viability mainly after 6 days”. In addition, the NK cell viability entry with NK cells [1] is on record as “did not negatively impact; also recorded: no cytotoxic effect”. Moreover, in the data set on NK cells [2], the “impact on NK cell phenotype” value is reported as “minimal impact”. Moreover, in the data set with MOLM-13 RFP AML cells, the “target cell lysis, single agent” value was “increased target cell lysis; also recorded: some target lysis”. In addition, the “CD123 expression level (MedFI) on MOLM-13 cells” value with CD123 on MOLM-13 cells (48 h) is on record as “mild reduction”. For the same compound, the “CD123 expression (median fluorescence intensity) on MOLM-13 cells” value in the data set on CD123 on MOLM-13 cells is given as “did not impact”. Also, the “CD123 target expression on MOLM-13 AML tumor cells (conclusion)” value in the data set with CD123 on MOLM-13 cells is on record as “minimal impact”. Moreover, the “CD16a expression level on NK cells” value with CD16a on NK cells is given as “no impact”. Also, the plasma concentration in data set [6] is 2000 nM. In addition, the “MOLM-13 cell viability, concentration-dependent response” value in data set [3] (VEN 0.01 nM to 10 μM, 48 h) was “impact on MOLM-13 cell viability from 10 nM to 10 μM”. The “killing activity as a single agent” value in data set [3] (VEN at its plasma concentration, 2 μM) is recorded as “very strong killing activity”. Besides, the “NKp46 expression level on NK cells” value in the data set on NKp46 on NK cells is “no impact”.
